The values that follow come from publication PMC4805082, “Seizure control by decanoic acid through direct AMPA receptor inhibition” (Brain, 2015).

Like-named read-outs stand apart in the source and are kept apart here.

Data set [1] relates to epileptiform activity (burst discharges) in hippocampal slices induced by low-Mg2+. The data set is described as follows: In vitro seizure model, low-Mg2+ induced epileptiform activity in hippocampal slices. Type of data set: cell-based, rat. The note with it: 1 mM; low magnesium. Here is the method: Male Sprague-Dawley rats (postnatal Days 19–30) were sacrificed using an overdose of isoflurane or pentobarbitone (500 mg/kg). After decapitation the brain was rapidly removed, the hippocampus or entorhinal cortex-hippocampus slices was dissected from the brain and […] thick transverse slices were prepared on a VT1200S vibratome (Leica) or Vibratome (Vibratome® 1500 sectioning system, Intracell). The slicing was performed in ice-cold sucrose-based solution containing (in mM): 75 sucrose, 87 NaCl, 22 glucose, 2.5 KCl, 7 MgCl2, 1.25 NaH2PO4, 0.5 CaCl2 and 25 NaHCO3, pH 7.4, 315–330 mOsm equilibrated with 95% O2 plus 5% CO2. The slices were then stored in a continuously oxygenated humidified interface holding chamber containing oxygenated artificial CSF (in mM): 120 NaCl, 22 glucose, 2.5 KCl, 1.3 MgSO4, 1 NaH2PO4, 25 NaHCO3 and 2.5 CaCl2, pH 7.4 296 mOsm, where they recovered for at least 1 h before use.
During the experiment, slices were transferred from the interface chamber into a submerged recording chamber, designed to optimize wash-in and wash-out of drugs, and continuously perfused using gravity feed at 3–6 ml/min with prewarmed (36°C) oxygenated artificial CSF (95% O2, 5% CO2). Field potentials were recorded with a glass microelectrode (1–2 MΩ) filled with artificial CSF solution placed in stratum radiatum of CA1 and were filtered at 1 kHz and digitized at 2 kHz (using an npi EXT-02F extracellular amplifier recorded with WinEDR software). In the pentylenetetrazol model, the epileptiform (paroxysmal) activity was induced by application of pentylenetetrazol (2 mM) to the perfusate and [K^+] was increased (to 6 mM); in low-Mg^2+ model, the epileptiform activity was elicited by using Mg^2+-free artificial CSF. Once the frequency of the paroxysmal activity was stable for at least 10 min, compounds were applied to the perfusate for the following 40 min, and washed out for a remaining 20 min. The anticonvulsant effects were evaluated by measuring the change in the frequency of the discharges at minute intervals. […]

The next data set has as its target T1, AMPA receptor GluA1/2 (Homo sapiens, UniProt P42261+P42262).
T1 construct: expressed in transfected cells; host or cells: Xenopus laevis oocytes injected with cRNA (1:1 mix)
The data set is described as follows: Two-electrode voltage clamp, AMPA receptor GluA1/2 expressed in Xenopus oocytes. Type of data set: cell-based. Here is the method:
(§1) The AMPA receptor (flip isoform) cDNAs inserted in a SP6 polymerase expression vector (pSP6T) were a generous gift from Prof. Ralf Schoepfer (NPP, UCL). […] AMPA receptor cRNAs were mixed in a nominal 1:1 ratio and ∼5 ng was injected per oocyte.
(§2) Xenopus laevis oocytes were purchased from the European Xenopus Resource Centre, University of Portsmouth. Stage V to VI oocytes were mechanically dissected and then subjected to gentle shaking for ∼30–50 min at room temperature with modified Barth’s solution (in mM): 88 NaCl, 1 KCl, 2.4 NaHCO3, 0.82 MgCl2, 0.77 CaCl2, 15 Tris-Cl, adjusted to pH 7.4 with NaOH (Sigma-Aldrich), supplemented with 50 IU/ml penicillin and 50 µg/ml streptomycin (Invitrogen) and 50 µg/ml tetracycline (Sigma-Aldrich) and 1% collagenase (type 1A). Healthy oocytes were manually defolliculated and the injections of cRNA for homomeric subunits alone (GluA1), or heteromeric mixtures of two subunits together (GluA1/GluA2 or GluA2/GluA3) were made using an automated Drummond Nanoinject II injector. The oocytes were then incubated at 17°C in modified Barth’s solution for at least 48 h before use in electrophysiological recordings.
Experiments were performed at room temperature (∼21–23°C). […]
A general note: Two-electrode voltage clamp holds a large cell at a set potential and records current.

The target of another data set is T2, AMPA receptor GluA2/3 (Homo sapiens, UniProt P42262+P42263).
T2 construct: expressed in transfected cells; host or cells: Xenopus laevis oocytes injected with cRNA (1:1 mix)
The data set is described as follows: Two-electrode voltage clamp, AMPA receptor GluA2/3 expressed in Xenopus oocytes. The data set is classed as cell-based. Here is the method: as §1, §2
Experiments were performed at room temperature (∼21–23°C). […] Current and voltage electrodes were filled with 300 mM KCl and made from thin-walled borosilicate glass (GC150TF-7.5, Harvard Apparatus) using a PC-10 electrode puller (Narashige Instruments) and had resistances of 0.5–2 MΩ. […] Compounds were dissolved in distilled water or DMSO and dissolved in bathing solution to achieve their final concentrations during experiments, and were applied under gravity flow during the experiment by using a multi-valve perfusion system (VC3-8C, ALA Scientific Instruments). The bath solutions were perfused at a rate of 10 ml/min. […] Data acquisition was performed using the Windows PC-based program, WinEDR v3.0.6 (John Dempster, University of Strathclyde, UK).
Statistical analysis was performed using ANOVA with Tukey post hoc test, paired t-test or unpaired t-test.

Details of data set [2]: method as in earlier work. Particulars: average; children with intractable epilepsy on MCT diet; ref Haidukewych et al., 1982; Sills et al., 1986a; Dean et al., 1989; cited from earlier work.

T2 sequence (P42262 22-883 isoform P42262-2 limits assumed): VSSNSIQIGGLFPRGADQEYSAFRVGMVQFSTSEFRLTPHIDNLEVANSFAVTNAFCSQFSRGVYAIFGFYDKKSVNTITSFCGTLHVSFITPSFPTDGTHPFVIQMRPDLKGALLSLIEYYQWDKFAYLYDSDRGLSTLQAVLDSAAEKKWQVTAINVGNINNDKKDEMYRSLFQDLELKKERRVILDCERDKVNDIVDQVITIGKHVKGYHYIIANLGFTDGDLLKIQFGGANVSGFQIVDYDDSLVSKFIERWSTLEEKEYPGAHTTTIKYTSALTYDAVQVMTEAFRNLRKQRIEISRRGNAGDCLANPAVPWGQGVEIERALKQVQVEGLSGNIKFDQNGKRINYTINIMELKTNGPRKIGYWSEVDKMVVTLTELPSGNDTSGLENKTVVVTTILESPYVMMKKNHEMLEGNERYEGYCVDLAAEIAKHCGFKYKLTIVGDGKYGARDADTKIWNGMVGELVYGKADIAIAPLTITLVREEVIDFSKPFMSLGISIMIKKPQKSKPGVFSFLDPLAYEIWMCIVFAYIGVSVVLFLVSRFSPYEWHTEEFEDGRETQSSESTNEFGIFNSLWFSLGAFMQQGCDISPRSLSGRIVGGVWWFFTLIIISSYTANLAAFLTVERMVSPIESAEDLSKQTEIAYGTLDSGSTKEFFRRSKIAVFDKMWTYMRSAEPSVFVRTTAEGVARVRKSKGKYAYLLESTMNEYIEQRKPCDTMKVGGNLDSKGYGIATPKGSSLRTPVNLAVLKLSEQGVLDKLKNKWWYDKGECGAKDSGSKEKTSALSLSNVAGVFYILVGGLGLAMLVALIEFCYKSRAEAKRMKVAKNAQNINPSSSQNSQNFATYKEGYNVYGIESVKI
T2 sequence (P42263 29-894 isoform P42263-2 limits assumed): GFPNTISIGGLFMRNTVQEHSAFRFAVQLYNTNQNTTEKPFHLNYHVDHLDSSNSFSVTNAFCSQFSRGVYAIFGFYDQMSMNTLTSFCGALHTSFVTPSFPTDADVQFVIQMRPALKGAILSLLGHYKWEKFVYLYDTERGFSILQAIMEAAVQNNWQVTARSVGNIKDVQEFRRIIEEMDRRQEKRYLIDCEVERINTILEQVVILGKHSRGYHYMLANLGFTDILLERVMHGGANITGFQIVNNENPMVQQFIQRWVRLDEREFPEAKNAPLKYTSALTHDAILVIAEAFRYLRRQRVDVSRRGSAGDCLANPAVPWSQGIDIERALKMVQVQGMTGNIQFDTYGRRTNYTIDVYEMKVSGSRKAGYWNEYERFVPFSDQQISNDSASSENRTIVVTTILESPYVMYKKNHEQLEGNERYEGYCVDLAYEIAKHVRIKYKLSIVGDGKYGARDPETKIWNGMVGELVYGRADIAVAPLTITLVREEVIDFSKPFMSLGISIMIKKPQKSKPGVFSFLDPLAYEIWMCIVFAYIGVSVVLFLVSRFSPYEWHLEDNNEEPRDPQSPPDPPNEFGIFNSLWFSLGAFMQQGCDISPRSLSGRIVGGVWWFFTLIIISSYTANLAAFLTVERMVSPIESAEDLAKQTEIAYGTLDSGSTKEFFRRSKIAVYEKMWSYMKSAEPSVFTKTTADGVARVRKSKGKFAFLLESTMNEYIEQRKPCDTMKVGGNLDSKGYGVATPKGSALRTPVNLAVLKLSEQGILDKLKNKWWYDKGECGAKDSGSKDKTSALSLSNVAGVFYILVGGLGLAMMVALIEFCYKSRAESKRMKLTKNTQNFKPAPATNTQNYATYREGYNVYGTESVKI
T1 sequence (P42261 19-906 isoform P42261-2 limits assumed): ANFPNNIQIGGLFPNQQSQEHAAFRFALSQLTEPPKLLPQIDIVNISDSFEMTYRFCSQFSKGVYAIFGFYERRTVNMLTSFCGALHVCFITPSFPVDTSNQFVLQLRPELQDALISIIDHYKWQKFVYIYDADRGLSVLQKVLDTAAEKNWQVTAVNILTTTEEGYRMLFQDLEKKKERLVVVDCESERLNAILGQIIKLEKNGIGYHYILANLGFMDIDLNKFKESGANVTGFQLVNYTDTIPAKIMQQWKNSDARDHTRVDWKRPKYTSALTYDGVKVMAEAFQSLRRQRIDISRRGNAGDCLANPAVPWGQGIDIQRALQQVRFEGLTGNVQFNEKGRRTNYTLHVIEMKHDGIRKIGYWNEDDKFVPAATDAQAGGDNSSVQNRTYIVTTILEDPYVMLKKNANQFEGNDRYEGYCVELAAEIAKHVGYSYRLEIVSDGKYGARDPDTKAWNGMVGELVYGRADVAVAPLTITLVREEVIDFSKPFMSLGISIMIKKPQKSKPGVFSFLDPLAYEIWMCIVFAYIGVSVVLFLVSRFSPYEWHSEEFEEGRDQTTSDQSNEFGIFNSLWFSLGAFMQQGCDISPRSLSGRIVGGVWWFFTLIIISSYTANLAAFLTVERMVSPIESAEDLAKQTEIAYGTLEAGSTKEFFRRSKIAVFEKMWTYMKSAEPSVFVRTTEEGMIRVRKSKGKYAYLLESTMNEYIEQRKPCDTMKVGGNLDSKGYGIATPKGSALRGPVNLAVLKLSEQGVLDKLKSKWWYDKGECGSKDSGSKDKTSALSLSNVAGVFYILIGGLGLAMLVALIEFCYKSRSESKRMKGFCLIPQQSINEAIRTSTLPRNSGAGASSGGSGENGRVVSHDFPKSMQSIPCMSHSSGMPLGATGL
T1 sequence (P42262 22-883 isoform P42262-2 limits assumed): as the sequence (P42262 22-883 isoform P42262-2 limits assumed) above

As usually defined, the IC50 is the concentration that gives 50% inhibition. What is called inhibition is the percentage by which the read-out fell short of the control. For the compound `CCCCCCCCCC(=O)O` [decanoic acid], in data set [1], the “effect on epileptiform activity” value was “completely blocked”. Besides, the IC50 against AMPA receptor GluA1/2 came out at 1160 µM; at AMPA receptor GluA2/3 (glutamate 100 µM, membrane potential −40 mV, n = 6, read-out: IC50) it was 430 ± 90 µM; at AMPA receptor GluA2/3 (glutamate 100 µM, membrane potential −80 mV, n = 6, read-out: IC50), 1110 ± 50 µM; at AMPA receptor GluA2/3 (glutamate 100 µM, read-out: IC50, inhibition of glutamate-induced AMPA receptor current) it was 520 ± 20 µM; at AMPA receptor GluA2/3 (glutamate 1 mM, n = 10, read-out: IC50, inhibition of glutamate-induced AMPA receptor current) it was 540 ± 30 µM. The inhibition at 100 µM on AMPA receptor GluA2/3 (100 µM, read-out: inhibition of AMPA-mediated currents) was roughly 20%. Moreover, the “decrease in AMPA receptor responses” value on AMPA receptor GluA2/3 (1 mM) is given as 60–70%. The “AMPA receptor current following activation with AMPA” value at AMPA receptor GluA2/3 (agonist AMPA 30 µM, n = 8) is 16.7 ± 2.7 % of AMPA alone. In addition, the AMPA receptor currents at AMPA receptor GluA2/3 (compound 1 mM, currents elicited by 100 µM L-glutamate, −50 mV) is recorded as 32.4 ± 2.0 % of control. The serum concentration in data set [2] is on record as 156.7 µM.
